The target in assay [1] is T1, human calcitonin receptor (hCTR) (Homo sapiens, UniProt P30988).
T1 construct: expressed in transfected cells
T1 sequence (P30988 25-474): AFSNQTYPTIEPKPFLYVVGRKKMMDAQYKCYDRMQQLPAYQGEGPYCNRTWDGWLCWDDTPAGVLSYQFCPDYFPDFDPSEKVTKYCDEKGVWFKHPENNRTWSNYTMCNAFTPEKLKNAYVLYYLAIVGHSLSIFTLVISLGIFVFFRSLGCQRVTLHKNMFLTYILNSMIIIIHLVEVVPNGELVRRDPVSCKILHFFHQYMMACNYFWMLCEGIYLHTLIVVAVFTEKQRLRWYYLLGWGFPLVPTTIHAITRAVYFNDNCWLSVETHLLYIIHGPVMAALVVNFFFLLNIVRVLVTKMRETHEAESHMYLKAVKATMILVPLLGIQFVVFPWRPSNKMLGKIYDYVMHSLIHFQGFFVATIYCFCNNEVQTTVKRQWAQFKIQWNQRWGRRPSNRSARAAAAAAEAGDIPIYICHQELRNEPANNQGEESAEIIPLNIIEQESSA
In words: cAMP production in 1321N1 cells with stable recombinant expression of human calcitonin receptor (hCTR). As to conditions: cAMP, 1321N1 cells, assay buffer with 0.1% BSA; read-out: EC50 (pM) hCTR. The format is cell-based. As to the method: (§1) The functional activities of lipidated pramlintide analogue peptides, such as cAMP production, were tested in 1321N1 cell line with stable recombinant expression of human calcitonin receptor (hCTR) or human amylin receptor (calcitonin receptor co-expressed with receptor activity modifying protein, RAMP3) (hAMYR3) or HEK cells with stable recombinant expression of rat calcitonin receptor (rat CTR) or rat amylin receptor (calcitonin receptor co-expressed with receptor activity modifying protein, RAMP3) (Rat AMYR3).
(§2) Cryopreserved cell stock was thawed rapidly in a water-bath, suspended in assay buffer (0.1% BSA (Sigma # A3059) in HBSS (Sigma # H8264) with 25 mM HEPES, pH 7.4 and containing 0.5 mM IB MX (Sigma# 17018)) and spun at 240×g for 5 minutes. Cells were re-suspended in assay buffer at a batch-dependent optimized concentration (e.g. hCTR cells at 0.125×10^5 cells/mL, hAMYR3 cells at 0.125×10^5 cells/mL, rat CTR cells at 1x10^5 cells/mL, rat AMYR3 at 2×10^5 cells/mL).
(§3) The test peptide stock was prepared in DMSO and diluted in assay buffer to reach stated concentrations and transferred in duplicates into a 384-black shallow well microtitre assay plate (Corning # 3676). Cells were added to the assay plate, incubated at room temperature for 30 minutes and the cAMP level measured using cAMP dynamic 2 HTRF kit (Cisbio, Cat # 62AM4PEJ), following the two step protocol as per manufacturer's recommendations. The plates were read on an Envision (Perkin Elmer) using excitation wavelength of 320 nm and emission wavelengths of 620nm & 665 nm.
(§4) Data was transformed to % Delta F as described in the manufacturer's guidelines and analyzed as percent activation of maximal amylin or calcitonin effect by 4-parameter logistic fit to determine EC50 values. The selectivity of a peptide to hAMYR vs hCTR is defined as a ratio of EC50 values at the two receptors.

In assay [2] the target is T2, human amylin receptor (calcitonin receptor co-expressed with receptor activity modifying protein, RAMP3) (hAMYR3) (Homo sapiens, UniProt O60896+P30988).
T2 construct: expressed in transfected cells
T2 sequence (P30988 25-474): T1 sequence (P30988 25-474)
T2 sequence (O60896 24-148 partner): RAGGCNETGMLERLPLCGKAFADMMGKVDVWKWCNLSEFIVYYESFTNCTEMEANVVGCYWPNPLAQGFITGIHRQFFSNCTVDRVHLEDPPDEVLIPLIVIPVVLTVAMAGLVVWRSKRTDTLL
The assay can be described thus: cAMP production in 1321N1 cells with stable recombinant expression of human amylin receptor (hAMYR3). It is filed as cell-based. To be noted: for Ratio (selectivity hAMYR vs hCTR, ratio of EC50 values at the two receptors): EC50 hCTR / EC50 hAMYR3; for EC50: cAMP, 1321N1 cells, assay buffer with 0.1% BSA, read-out: EC50 (pM) hAMYR3. The protocol:
as §1, §2, §3, §4

Here are results for 5 compounds from patent US20240067693A1, “POLYPEPTIDES AND USES THEREOF” (MEDIMMUNE LIMITED, priority 2020, published 2024).

SMILES strings stand for the structures. Numbered stars: 1 amine (or outer) side, 2 acyl side, 3 side chain; on linkers, the order of the positions; unused ones are H or OH. Bridge positions count the residues as written; N and C are the ends. Square brackets hold non-standard residues; d marks the D form. Side chains are listed from the residue outwards. Peptide text beside a SMILES is read from it. * marks the point of attachment. C20 diacid = O=C(O)CCCCCCCCCCCCCCCCCCC(=O)*; C18 diacid = O=C(O)CCCCCCCCCCCCCCCCC(=O)*; γGlu = O=C(O)[C@H](CCC(=O)[*:2])N[*:1]; αMeF = C[C@](N)(Cc1ccccc1)C(=O)O; Aib = CC(C)(N)C(=O)O

As to `CC[C@H](C)[C@H](NC(=O)[C@@H]1CCCN1C(=O)CNC(=O)[C@H](Cc1ccccc1)NC(=O)[C@H](CC(N)=O)NC(=O)[C@@H]1CCCN1C(=O)[C@H](CO)NC(=O)[C@H](CO)NC(=O)[C@H](Cc1c[nH]cn1)NC(=O)C(C)(C)NC(=O)[C@H](CC(C)C)NC(=O)[C@H](Cc1ccccc1)NC(=O)[C@H](CC(N)=O)NC(=O)[C@H](C)NC(=O)[C@H](CC(C)C)NC(=O)[C@H](CCCNC(=N)N)NC(=O)[C@H](CCC(N)=O)NC(=O)[C@@H](NC(=O)[C@H](C)NC(=O)[C@@H]1CSSC[C@H](NC(=O)[C@H](CCCCN)NC(=O)[C@@H](N)CCCCNC(=O)CC[C@H](NC(=O)CCCCCCCCCCCCCCCCC(=O)O)C(=O)O)C(=O)N[C@@H](CC(N)=O)C(=O)N[C@@H]([C@@H](C)O)C(=O)N[C@@H](C)C(=O)N[C@@H]([C@@H](C)O)C(=O)N1)[C@@H](C)O)C(=O)N[C@@H](CC(C)C)C(=O)N1CCC[C@H]1C(=O)N1CCC[C@H]1C(=O)N[C@H](C(=O)N[C@@H](CC(N)=O)C(=O)N[C@H](C(=O)NCC(=O)N[C@@H](CO)C(=O)N[C@@H](CC(N)=O)C(=O)N[C@H](C(=O)N[C@@H](Cc1ccc(O)cc1)C(N)=O)[C@@H](C)O)C(C)C)[C@@H](C)O` [Peptide 132] (H-K([γGlu-C18 diacid])KCNTATCATQRLANFL[Aib]HSSPNFGPILPPTNVGSNTY-NH2; disulfide 3-8), the EC50 in assay [1] was determined as 3850 pM. For the same compound, in assay [2], the “Ratio (selectivity hAMYR vs hCTR, ratio of EC50 values at the two receptors)” value turned out to be 9.3 and the EC50 came out at 416 pM.
As to `CC[C@H](C)[C@H](NC(=O)[C@@H]1CCCN1C(=O)CNC(=O)[C@H](Cc1ccccc1)NC(=O)[C@H](CC(N)=O)NC(=O)[C@H](CC(N)=O)NC(=O)[C@H](CO)NC(=O)[C@H](CO)NC(=O)[C@H](Cc1c[nH]cn1)NC(=O)[C@@H](NC(=O)[C@H](CC(C)C)NC(=O)[C@H](Cc1ccccc1)NC(=O)[C@H](CC(N)=O)NC(=O)[C@H](C)NC(=O)[C@H](CC(C)C)NC(=O)[C@H](CCCNC(=N)N)NC(=O)[C@H](CCC(N)=O)NC(=O)[C@@H](NC(=O)[C@H](C)NC(=O)[C@@H]1CSSC[C@H](NC(=O)[C@@H](N)CCCCNC(=O)CC[C@H](NC(=O)CC[C@H](NC(=O)CCCCCCCCCCCCCCCCCCC(=O)O)C(=O)O)C(=O)O)C(=O)N[C@@H](CC(N)=O)C(=O)N[C@@H]([C@@H](C)O)C(=O)N[C@@H](C)C(=O)N[C@@H]([C@@H](C)O)C(=O)N1)[C@@H](C)O)C(C)C)C(=O)N[C@@H](CC(C)C)C(=O)N1CCC[C@H]1C(=O)N1CCC[C@H]1C(=O)N[C@H](C(=O)N[C@@H](CC(N)=O)C(=O)N[C@H](C(=O)NCC(=O)N[C@@H](CO)C(=O)N[C@@H](CCCNC(=N)N)C(=O)N[C@H](C(=O)N[C@@H](Cc1ccc(O)cc1)C(N)=O)[C@@H](C)O)C(C)C)[C@@H](C)O` [Peptide 114] (H-K([γGlu-γGlu-C20 diacid])CNTATCATQRLANFLVHSSNNFGPILPPTNVGSRTY-NH2; disulfide 2-7 (inferred)), in assay [2], the “Ratio (selectivity hAMYR vs hCTR, ratio of EC50 values at the two receptors)” value is recorded as 12.
Still for that read-out and setting: to `CC[C@H](C)[C@H](NC(=O)[C@H](C)NC(=O)[C@@H]1CCCN1C(=O)[C@H](Cc1ccccc1)NC(=O)[C@H](CC(N)=O)NC(=O)[C@@H]1CCCN1C(=O)[C@H](CO)NC(=O)[C@H](CO)NC(=O)[C@H](Cc1c[nH]cn1)NC(=O)[C@@H](NC(=O)[C@H](CC(C)C)NC(=O)[C@H](Cc1c[nH]c2ccccc12)NC(=O)[C@H](CC(N)=O)NC(=O)[C@H](C)NC(=O)[C@H](CC(C)C)NC(=O)[C@H](CCCNC(=N)N)NC(=O)[C@H](CCC(N)=O)NC(=O)[C@@H](NC(=O)[C@H](C)NC(=O)[C@@H]1CSSC[C@H](NC(=O)[C@@H](N)CCCCNC(=O)CC[C@H](NC(=O)CC[C@H](NC(=O)CCCCCCCCCCCCCCCCCCC(=O)O)C(=O)O)C(=O)O)C(=O)N[C@@H](CC(N)=O)C(=O)N[C@@H](C)C(=O)N[C@@H](C)C(=O)N[C@@H]([C@@H](C)O)C(=O)N1)[C@@H](C)O)C(C)C)C(=O)N[C@@H](CC(C)C)C(=O)N[C@@H](CO)C(=O)N1CCC[C@H]1C(=O)N[C@H](C(=O)N[C@@H](CC(N)=O)C(=O)N[C@H](C(=O)NCC(=O)N[C@@H](CO)C(=O)N[C@@H](CC(N)=O)C(=O)N[C@H](C(=O)N[C@@H](Cc1ccc(O)cc1)C(N)=O)[C@@H](C)O)C(C)C)[C@@H](C)O` [Peptide 120] (H-K([γGlu-γGlu-C20 diacid])CNAATCATQRLANWLVHSSPNFPAILSPTNVGSNTY-NH2; disulfide 2-7 (inferred)) belongs 6.
As for `CC[C@H](C)[C@H](NC(=O)[C@@H]1CCCN1C(=O)CNC(=O)[C@](C)(Cc1ccccc1)NC(=O)[C@H](CC(N)=O)NC(=O)[C@H](CC(N)=O)NC(=O)[C@H](CO)NC(=O)[C@H](CO)NC(=O)[C@H](Cc1c[nH]cn1)NC(=O)[C@H](CCCNC(=N)N)NC(=O)[C@H](CC(C)C)NC(=O)[C@H](Cc1ccccc1)NC(=O)[C@H](CC(N)=O)NC(=O)[C@H](C)NC(=O)[C@H](CC(C)C)NC(=O)[C@H](CCCNC(=N)N)NC(=O)[C@H](CCC(N)=O)NC(=O)[C@@H](NC(=O)[C@H](C)NC(=O)[C@@H]1CSSC[C@H](NC(=O)[C@@H](N)CCCCNC(=O)CC[C@H](NC(=O)CCCCCCCCCCCCCCCCC(=O)O)C(=O)O)C(=O)N[C@@H](CC(N)=O)C(=O)N[C@@H]([C@@H](C)O)C(=O)N[C@@H](C)C(=O)N[C@@H]([C@@H](C)O)C(=O)N1)[C@@H](C)O)C(=O)N[C@@H](CC(C)C)C(=O)N1CCC[C@H]1C(=O)N1CCC[C@H]1C(=O)N[C@H](C(=O)N[C@@H](CCC(=O)O)C(=O)N[C@H](C(=O)NCC(=O)N[C@@H](CO)C(=O)N[C@@H](CC(N)=O)C(=O)N[C@H](C(=O)N[C@@H](Cc1ccc(O)cc1)C(N)=O)[C@@H](C)O)C(C)C)[C@@H](C)O` [Peptide 16, K(γE-C18diacid)[CNTATC]ATQRLANFLRHSSNN(αMePhe)GPILPPTEVGSNTY-amide] (H-K([γGlu-C18 diacid])CNTATCATQRLANFLRHSSNN[αMeF]GPILPPTEVGSNTY-NH2; disulfide 2-7; N-terminus assumed), in assay [2], the “Ratio (selectivity hAMYR vs hCTR, ratio of EC50 values at the two receptors)” value is reported as 9 and the 50% effective concentration (EC50) came to 221 pM.
Take `CC[C@H](C)[C@H](NC(=O)[C@H](C)NC(=O)[C@@H]1CCCN1C(=O)[C@H](Cc1ccccc1)NC(=O)[C@H](CC(N)=O)NC(=O)[C@@H]1CCCN1C(=O)[C@H](CO)NC(=O)[C@H](CO)NC(=O)[C@H](Cc1c[nH]cn1)NC(=O)[C@@H](NC(=O)[C@H](CC(C)C)NC(=O)[C@H](Cc1ccccc1)NC(=O)[C@H](CC(N)=O)NC(=O)[C@H](C)NC(=O)[C@H](CC(C)C)NC(=O)[C@H](CCCNC(=N)N)NC(=O)[C@H](CCC(N)=O)NC(=O)[C@@H](NC(=O)[C@H](C)NC(=O)[C@@H]1CSSC[C@H](NC(=O)[C@@H](N)CCCCNC(=O)CC[C@H](NC(=O)CC[C@H](NC(=O)CCCCCCCCCCCCCCCCCCC(=O)O)C(=O)O)C(=O)O)C(=O)N[C@@H](CC(N)=O)C(=O)N[C@@H]([C@@H](C)O)C(=O)N[C@@H](C)C(=O)N[C@@H]([C@@H](C)O)C(=O)N1)[C@@H](C)O)C(C)C)C(=O)N[C@@H](CC(C)C)C(=O)N[C@@H](CO)C(=O)N1CCC[C@H]1C(=O)N[C@H](C(=O)N[C@@H](CC(N)=O)C(=O)N[C@H](C(=O)NCC(=O)N[C@@H](CO)C(=O)N[C@@H](CC(N)=O)C(=O)N[C@H](C(=O)N[C@@H](Cc1ccc(O)cc1)C(N)=O)[C@@H](C)O)C(C)C)[C@@H](C)O` [Peptide 115] (H-K([γGlu-γGlu-C20 diacid])CNTATCATQRLANFLVHSSPNFPAILSPTNVGSNTY-NH2; disulfide 2-7 (inferred)): in assay [2], the “Ratio (selectivity hAMYR vs hCTR, ratio of EC50 values at the two receptors)” value turned out to be 11.
